IC50 data for 31 compounds are collected here from patent US20170320870A1 (Medical Research Council Technology, priority 2009, published 2017).

Where only a bound is given, the exact number is not on record here.

In the assay the target is T1, LRRK2 wild type (recombinant human, catalytic domain amino acids 970-2527, GST-tagged) (Homo sapiens, UniProt Q5S007).
T1 construct: The wild type used was recombinant human, catalytic domain (amino acids 970-2527) GST-tagged, expressed in insect cells; GST; purchased Invitrogen Corporation PV4873; host or cells: insect cells
T1 sequence (Q5S007 970-2527): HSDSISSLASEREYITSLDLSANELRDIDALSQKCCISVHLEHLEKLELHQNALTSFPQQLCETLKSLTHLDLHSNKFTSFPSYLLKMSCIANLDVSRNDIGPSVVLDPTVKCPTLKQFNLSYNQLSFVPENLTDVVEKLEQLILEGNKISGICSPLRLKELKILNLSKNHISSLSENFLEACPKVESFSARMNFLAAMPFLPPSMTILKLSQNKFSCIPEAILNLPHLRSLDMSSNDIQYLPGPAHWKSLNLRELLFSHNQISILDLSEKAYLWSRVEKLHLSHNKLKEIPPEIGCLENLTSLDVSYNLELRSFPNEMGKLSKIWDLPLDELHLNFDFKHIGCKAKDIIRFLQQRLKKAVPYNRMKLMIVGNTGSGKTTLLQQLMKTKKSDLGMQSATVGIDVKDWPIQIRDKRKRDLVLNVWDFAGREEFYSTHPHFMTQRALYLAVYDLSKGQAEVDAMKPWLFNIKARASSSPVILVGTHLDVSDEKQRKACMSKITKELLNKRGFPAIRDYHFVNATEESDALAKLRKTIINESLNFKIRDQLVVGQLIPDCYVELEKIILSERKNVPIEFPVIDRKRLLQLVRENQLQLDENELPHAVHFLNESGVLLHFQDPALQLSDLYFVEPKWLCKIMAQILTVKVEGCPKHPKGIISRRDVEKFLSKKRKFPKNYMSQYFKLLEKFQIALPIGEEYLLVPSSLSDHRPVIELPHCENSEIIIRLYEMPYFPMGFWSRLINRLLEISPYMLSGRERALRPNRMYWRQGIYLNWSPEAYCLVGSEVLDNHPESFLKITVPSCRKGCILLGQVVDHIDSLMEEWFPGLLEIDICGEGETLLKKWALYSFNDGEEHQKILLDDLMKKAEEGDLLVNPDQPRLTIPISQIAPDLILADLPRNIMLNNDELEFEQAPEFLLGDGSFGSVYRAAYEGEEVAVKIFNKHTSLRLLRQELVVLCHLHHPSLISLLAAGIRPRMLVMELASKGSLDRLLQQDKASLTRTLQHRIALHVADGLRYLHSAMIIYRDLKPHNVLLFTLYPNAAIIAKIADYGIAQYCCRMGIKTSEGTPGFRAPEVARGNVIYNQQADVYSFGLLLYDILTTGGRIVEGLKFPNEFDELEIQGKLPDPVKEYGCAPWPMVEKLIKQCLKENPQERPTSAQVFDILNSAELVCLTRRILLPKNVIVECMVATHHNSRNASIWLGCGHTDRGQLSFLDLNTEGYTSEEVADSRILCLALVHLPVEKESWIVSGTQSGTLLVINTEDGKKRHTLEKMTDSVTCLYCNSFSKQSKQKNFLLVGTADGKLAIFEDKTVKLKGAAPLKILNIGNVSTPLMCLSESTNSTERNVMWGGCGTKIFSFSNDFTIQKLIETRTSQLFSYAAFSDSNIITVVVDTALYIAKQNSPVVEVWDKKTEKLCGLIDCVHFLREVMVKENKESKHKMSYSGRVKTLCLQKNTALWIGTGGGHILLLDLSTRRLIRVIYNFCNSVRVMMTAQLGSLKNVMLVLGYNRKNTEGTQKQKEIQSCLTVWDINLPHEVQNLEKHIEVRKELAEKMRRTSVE
Nature of the assay: LRRK2 wild type protein kinase assay ([γ-33P] ATP, peptide substrate […]), IC50. Format: biochemical. The conditions noted are these: LRRK2 (variant not given); read-out: Potency score, LRRK2 IC50. Put shortly: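 Insect-cell-expressed enzyme (~5 nM), no activation, incubated 180 min at ~21 °C in 50 mM Tris-HCl pH 7.5, 0.1 mM EGTA, 1 mM DTT, 10 mM MgCl2 with 100 μM peptide substrate and [γ-33P]ATP. Reaction stopped with orthophosphoric acid, captured on P81 filters and counted; IC50 from 10 concentrations in duplicate.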

What is called IC50 is the concentration that inhibits the measured activity by half. Consider `O=C(CCc1n[nH]c2ccnc(NC3CCCCC3)c12)N1CCCCC1` [Example 169, 3-(4-Cyclohexylamino-1H-pyrazolo[4,3-c]pyridin-3-yl)-1-piperidin-1-yl-propan-1-one], for which the IC50 lay in the range of 100 to 1000 nM. In the case of `CC1CCN(C(=O)CCc2n[nH]c3ccnc(NC4CCCCC4)c23)CC1` [Example 192, 3-(4-Cyclohexylamino-1H-pyrazolo[4,3-c]pyridin-3-yl)-1-(4-methyl-piperidin-1-yl)-propan-1-one], the IC50 is 100 to 1000 nM.

As for `COc1nccc2[nH]nc(/C=C/C(=O)N3CCC[C@@H](C)C3)c12` [Example 259, (E)-3-(4-Methoxy-1H-pyrazolo[4,3-c]pyridin-3-yl)-1-((R)-3-methyl-piperidin-1-yl)-propenone], the IC50 was less than 100 nM. The value for `Cc1n[nH]c2ccnc(NCCNc3ccccc3)c12` [Example 337, N-(3-Methyl-1H-pyrazolo[4,3-c]pyridin-4-yl)-N′-phenyl-ethane-1,2-diamine] was 1000 to 10000 nM; that for `Cc1noc(C2CCCN(C(=O)CCc3n[nH]c4ccnc(NC5CCCCC5)c34)C2)n1` (stereo not shown) [Example 197, 3-(4-Cyclohexylamino-1H-pyrazolo[4,3-c]pyridin-3-yl)-1-[3-(3-methyl-1,2,4-oxadiazol-5-yl)-piperidin-1-yl]-propan-1-one] was 100 to 1000 nM; that for `Cc1n[nH]c2ccnc(NCc3ccccc3Cl)c12` [Example 315, (2-Chloro-benzyl)-(3-methyl-1H-pyrazolo[4,3-c]pyridin-4-yl)-amine] was 100 to 1000 nM. The value for `Cc1n[nH]c2ccnc(Nc3cnn(C)c3)c12` [Example 88, (3-Methyl-1H-pyrazolo[4,3-c]pyridin-4-yl)-(1-methyl-1H-pyrazol-4-yl)-amine] was 100 to 1000 nM.

For the compound `CCN(CC)CC1CCCN(C(=O)CCc2n[nH]c3ccnc(NC4CCCCC4)c23)C1` (stereo not shown) [Example 240, 3-(4-Cyclohexyl-amino-1H-pyrazolo[4,3-c]pyridin-3-yl)-1-(3-diethylaminomethyl-piperidin-1-yl)-propan-1-one], the IC50 fell in the range of 100 to 1000 nM. On to `CC(C)CN(C)C(=O)CCc1n[nH]c2ccnc(NC3CCCCC3)c12` [Example 182, 3-(4-Cyclohexylamino-1H-pyrazolo[4,3-c]pyridin-3-yl)-N-isobutyl-N-methyl-propionamide], for which the IC50 is 100 to 1000 nM. For `CC1CCCCN1C(=O)CCc1n[nH]c2ccnc(NC3CCCCC3)c12` (stereo not shown) [Example 198, 3-(4-Cyclohexylamino-1H-pyrazolo[4,3-c]pyridin-3-yl)-1-(2-methyl-piperidin-1-yl)-propan-1-one], the IC50 was 100 to 1000 nM.

Consider `CC[C@H](C)COc1nccc2[nH]nc(C)c12` [Example 284, 3-Methyl-4-((S)-2-methyl-butoxy)-1H-pyrazolo[4,3-c]pyridine], for which the IC50 is less than 100 nM. Consider `CCOc1nccc2[nH]nc(C)c12` [Example 124, 4-Ethoxy-3-methyl-1H-pyrazolo[4,3-c]pyridine], for which the IC50 fell in the range of 100 to 1000 nM. To `Clc1cccc(-c2n[nH]c3ccnc(NC4CCCCC4)c23)c1` [Example 144, [3-(3-Chloro-phenyl)-1H-pyrazolo[4,3-c]pyridin-4-yl]-cyclohexyl-amine] belongs 100 to 1000 nM. The value for `Cc1n[nH]c2ccnc(NCc3cccc(F)c3)c12` [Example 317, (3-Fluoro-benzyl)-(3-methyl-1H-pyrazolo[4,3-c]pyridin-4-yl)-amine] was 1000 to 10000 nM. With `Cc1n[nH]c2ccnc(-c3cccc(F)c3)c12` [Example 51, 4-(3-Fluoro-phenyl)-3-methyl-1H-pyrazolo[4,3-c]pyridine], the IC50 lay within 1000 to 10000 nM.

For `Cc1n[nH]c2ccnc(Nc3ccc(Cl)cc3)c12` [Example 310, (4-Chloro-phenyl)-(3-methyl-1H-pyrazolo[4,3-c]pyridin-4-yl)-amine], the IC50 fell in the range of 100 to 1000 nM. In the case of `Cc1n[nH]c2ccnc(NCCc3ccc(F)cc3)c12` [Example 334, [2-(4-Fluoro-phenyl)-ethyl]-(3-methyl-1H-pyrazolo[4,3-c]pyridin-4-yl)-amine], the IC50 was in the range of 100 to 1000 nM.

For the compound `O=C(CCc1n[nH]c2ccnc(NC3CCCCC3)c12)N1CCC(c2ccccc2)CC1` [Example 204, 3-(4-Cyclohexylamino-1H-pyrazolo[4,3-c]pyridin-3-yl)-1-(4-phenyl-piperidin-1-yl)-propan-1-one], the IC50 was less than 100 nM.

As for `Cc1n[nH]c2ccnc(N[C@@H](CO)C(C)C)c12` [Example 30, (R)-3-Methyl-2-(3-methyl-1H-pyrazolo[4,3-c]pyridin-4-ylamino)-butan-1-ol], the IC50 lay in the range of 1000 to 10000 nM. Turning to `Cc1n[nH]c2ccnc(Nc3cccc(CO)c3)c12` [Example 321, [3-(3-Methyl-1H-pyrazolo[4,3-c]pyridin-4-ylamino)-phenyl]-methanol], the IC50 is 100 to 1000 nM. On to `COCCNc1nccc2[nH]nc(C)c12` [Example 6, (2-Methoxy-ethyl)-(3-methyl-1H-pyrazolo[4,3-c]pyridin-4-yl)-amine], for which the IC50 fell in the range of 1000 to 10000 nM. The value for `Cc1n[nH]c2ccnc(NCCc3cccc(Cl)c3)c12` [Example 331, [2-(3-Chloro-phenyl)-ethyl]-(3-methyl-1H-pyrazolo[4,3-c]pyridin-4-yl)-amine] was 100 to 1000 nM; that for `Cc1n[nH]c2ccnc(CCC(C)C)c12` [Example 128, 3-Methyl-4-(3-methyl-butyl)-1H-pyrazolo[4,3-c]pyridine] was 1000 to 10000 nM. As for `O=C(Nc1cccc(CCc2n[nH]c3ccnc(NC4CCCCC4)c23)c1)c1ccc(N2CCOCC2)cc1` [Example 227, N-{3-[2-(4-Cyclohexylamino-1H-pyrazolo[4,3-c]pyridin-3-yl)-ethyl]-phenyl}-4-morpholin-4-yl-benzamide], the IC50 was less than 100 nM. Consider `O=C(Nc1ccc(CCc2n[nH]c3ccnc(NC4CCCCC4)c23)cc1)c1cocn1` [Example 268, Oxazole-4-carboxylic acid {4-[2-(4-cyclohexylamino-1H-pyrazolo[4,3-c]pyridin-3-yl)-ethyl]-phenyl}-amide], for which the IC50 was less than 100 nM. Consider `COc1ccccc1NC(=O)c1ccc(Nc2nccc3[nH]nc(C)c23)cc1` [Example 111, N-(2-Methoxy-phenyl)-4-(3-methyl-1H-pyrazolo[4,3-c]pyridin-4-ylamino)-benzamide], for which the IC50 lay in the range of 1000 to 10000 nM. The value for `Cc1n[nH]c2ccnc(OCCC(C)C)c12` [Example 282, 3-Methyl-4-(3-methyl-butoxy)-1H-pyrazolo[4,3-c] pyridine] was 100 to 1000 nM; that for `COc1ccccc1CCNc1nccc2[nH]nc(C)c12` [Example 339, [2-(2-Methoxy-phenyl)-ethyl]-(3-methyl-1H-pyrazolo[4,3-c]pyridin-4-yl)-amine] was 1000 to 10000 nM. Consider `Cc1n[nH]c2ccnc(NCCc3ccccn3)c12` [Example 2, (3-Methyl-1H-pyrazolo[4,3-c]pyridin-4-yl)-(2-pyridin-2-yl-ethyl)-amine], for which the IC50 was 1000 to 10000 nM. The value for `N#Cc1cccc(-c2n[nH]c3ccnc(NC4CCCCC4)c23)c1` [Example 150, 3-(4-Cyclohexylamino-1H-pyrazolo[4,3-c]pyridin-3-yl)-benzonitrile] was 100 to 1000 nM. Regarding `Cc1n[nH]c2ccnc(Nc3ccc4c(c3)CN(C)CC4)c12` [Example 75, (3-Methyl-1H-pyrazolo[4,3-c]pyridin-4-yl)-(2-methyl-1,2,3,4-tetrahydro-isoquinolin-7-yl)-amine], the IC50 lay within 100 to 1000 nM.
